These results are taken from patent US10376557B2, “Peptide fragments for inducing synthesis of extracellular matrix proteins” (HELIX BIOMEDIX, INC., priority 2006, dated 2019).

Assay [1] has as its system human skin epithelial cells (CRL-2592). Description: In vitro scratch wound closure of skin epithelial cell monolayer. The class given is cell-based. The procedure: Wound healing experiments were performed on monolayers of human skin epithelial cells (CRL-2592) plated onto 12-well plates. Cells were serum-starved for 24 hours before experimentation. Confluent monolayers of CRL-2592 were wounded using a P200 (200-μL) pipette tip. The wounds were washed and picture-documented prior to peptide treatment. Peptides were added to a final concentration from 20 to 40 μg/ml. Cells were kept in an incubator at 37° C., 5% CO2, and 92% humidity, except when images were being captured for a short period at room temperature. Wound closure was followed at 6-hour and 10-hour time points. PBS-treated wounds were used as negative controls for comparison purposes.

A further assay has as its system Human dermal fibroblasts. Description: SIRCOL collagen assay: soluble collagen released by dermal fibroblasts incubated with peptides. The class given is cell-based. Particulars: for Collagen / Collagen (μg): * = may not be significant, detection limit 2.5 μg; for Decrease in collagen release at 48 h v. 24 h / Significant release of collagen at 24 h and 48 h / Increase in collagen release at 48 h v. 24 h: check mark = yes; for Significant release of collagen at 24 h and 48 h: 25 μg/mL considered significant. The procedure:
Several sequences identified in Examples 1 and 2 were synthesized using standard peptide chemistry and assayed for the stimulation of collagen from dermal fibroblasts. The synthesized peptides were amidated at the C-terminus, which rendered the tetrapeptides less susceptible to protease degradation and increased their solubility compared to the free acid forms. Human dermal fibroblasts were incubated in 96-well plates at 37° C. and 5% CO2 for 24 and 48 hours in 150 μL complete cell culture media (Cascade Biologics, Portland, Oreg.; Cat. No. M-106-500), supplemented with Low Serum Growth Supplement (Cascade Biologics, Portland, Oreg.; Cat. No. […] Each well was seeded with 10,000 cells. Following the incubation, 100-μL medium samples were recovered from each well and assayed for collagen production
The assays were performed by Tebu-bio Laboratories (France) using the SIRCOL™ Collagen Assay Kit (Biocolor Assays, UK) following the manufacturer's protocol. The SIRCOL™ Collagen Assay is a quantitative dye-binding method designed for the analysis of soluble collagens released into culture medium by mammalian cells during in vitro culture. The collagen of the tested samples binds to the anionic SIRCOL™ dye. The collagen-dye complexes precipitate out of solution and are pelleted by centrifugation. The recovered collagen-dye pellet was dissolved in an alkaline solution prior to absorbance measurements. Duplicate measurements were taken at the 24 and 48 hour times from two separate samples. The four measurements for each sample were averaged. The absorbance of reagent blanks, collagen standards, and samples were measured at 560 nm. The reagent blank absorbance was subtracted from the absorbance from each sample at 24 and 48 hours.
Two separate data sets were used to generate two collagen standard calibration curves. The first calibration curve was generated for purposes of calculating the quantity of collagen in samples H6 (combination of SEQ ID NOs:1-4), […] (SEQ ID NOs:1-8, respectively) and H15 (combination of SEQ ID NOs:5-8). The second calibration curve was generated for calculating the quantity of collagen in samples H16 (SEQ ID NO:9), H21-23 (SEQ ID NOs:10-12, respectively), H25-26 (SEQ ID NOs:13-14, respectively), or H29-30 (SEQ ID NOs:15-16, respectively), H32 (SEQ ID NO:17), H33 (combination of SEQ ID NOs:9-12), H34 (combination of SEQ ID NOs:11-14), H35 (combination of SEQ ID NOs:13-16), H36 (combination of SEQ ID NOs:1, 6, 5, 8), H37 (SEQ ID NO: 17) and H38 (SEQ ID NO:8) from the absorbance measurements was created by plotting the Abs560nm of the known collagen standards versus the respective concentrations of the collagen standards (in micrograms) each time a series of assays were performed. With respect to each data set, the same calibration curve was used for samples taken at the 24 and 48 hour times (Tables 2A and 2B). Accordingly, different standard curves were prepared immediately prior to performing each series of assays.
A linear regression was performed from plotting the Abs560nm values versus concentrations of the respective collagen standards using MICROSOFT EXCEL™. […] As the results were identical, only the 24-hour time period was used for the second series calibration curves. The formula of the line obtained on assay date 1 and assay date 2 of the second series of samples was y=0.0178x and y=0.0162x, respectively. The peptide LL-37 (SEQ ID NO:18) was used as a positive control as it has been widely reported to have an impact upon wound healing in man (Heilborn et al., The Cathelicidin Anti-Microbial Peptide LL-37 Is Involved In The Re-Epithelialization Of Human Skin Wounds And Is Lacking In Chronic Ulcer Epithelium, J. Invest. Dermato. 120:379-89 (2003). The assay detection limit defined by the manufacturer is 2.5 μg. […]

Where [2] appears, read: 24 hours, peptide 50 μg/mL, 100 μL medium sample.
Where [3] appears, read: 48 hours, peptide 50 μg/mL, 100 μL medium sample.
The mark [4] stands for this setting: 24 hours, peptide 50 μg/mL, second series.
Setting [5] is: 48 hours, peptide 50 μg/mL, second series.
The mark [6] stands for this setting: peptide 0.3 μg/mL (per Table 5).
The mark [7] stands for this setting: 24 hours, peptide 0.3 μg/mL, second series.
Setting [8] is: 48 hours, peptide 0.3 μg/mL, second series.

Ends that are not written are not given here.

As to GEPG (Synthetic Peptide H11), in assay [1] (0 hr, prior to peptide treatment), the “W-size (wound size) 0 hr” value came to 48 arbitrary. In addition, the “W-size (wound size) 6 hr” value in assay [1] (6 hr, peptide 20 to 40 μg/ml) worked out at 39 arbitrary. In assay [1] (6 hr, peptide 20 to 40 μg/ml, PBS controls 19.40%, 19.20%), the “% closure 6 hr” value was 19%. Further, the “W-size (wound size) 10 hr” value in assay [1] (10 hr, peptide 20 to 40 μg/ml) came to 30 arbitrary. For the same substance, in assay [1] (10 hr, peptide 20 to 40 μg/ml, PBS controls 41.70%, 42.30%), the “% closure 10 hr” value stood at 37.50%. Also, the “wound closure compared to PBS alone (in words)” value in assay [1] (epithelial cell monolayer) is reported as “does not enhance wound closure or epithelial cell migration to any great extent”. In the assay with Human dermal fibroblasts (peptide 50 μg/mL (per Table 5)), the “Released collagen (μg/mL) 24 h” value was determined as 45 µg/mL and the “Released collagen (μg/mL) 48 h” value amounted to 21 µg/mL. In the assay with Human dermal fibroblasts (24 hours, peptide 50 μg/mL), the “Average (A560 nm)” value is 0.14 and the “Average minus blank (A560 nm)” value was found to be 0.06. Also, the “Collagen” value in the assay on Human dermal fibroblasts (setting [2]) was 4.5 µg. Further, in the assay with Human dermal fibroblasts ([Peptide] 50 μg/mL), the “Collagen produced (μg/mL) 24 hrs” value is 45 µg/mL and the “Collagen produced (μg/mL) 48 hrs” value was 21 µg/mL. Besides, in the assay with Human dermal fibroblasts (48 hours, peptide 50 μg/mL), the “Average (A560 nm)” value amounted to 0.15 and the “Average minus blank (A560 nm)” value worked out at 0.03. The “Collagen (μg)” value in the assay on Human dermal fibroblasts (setting [3]) is on record as 2.1* μg. Moreover, in the assay on Human dermal fibroblasts (peptide 50 μg/mL), the “Decrease in collagen release at 48 h v. 24 h” value (from here on “Decrease in collagen release”) is “✓”.

On to PGQP (PGQP-NH2) [H22], for which, in the assay on Human dermal fibroblasts (peptide 50 μg/mL (per Table 5)), the “Released collagen (μg/mL) 24 h” value amounted to 33 µg/mL and the “Released collagen (μg/mL) 48 h” value was 21 µg/mL. For the same substance, in the assay on Human dermal fibroblasts (setting [4]), the “Average (A560 nm)” value turned out to be 0.14, the “Average minus blank (A560 nm)” value worked out at 0.06 and the “Collagen” value amounted to 3.3 µg. For the same substance, in the assay with Human dermal fibroblasts ([Peptide] 50 μg/mL), the “Collagen produced (μg/mL) 24 hrs” value was 33 µg/mL and the “Collagen produced (μg/mL) 48 hrs” value was 21 µg/mL. Moreover, in the assay with Human dermal fibroblasts (setting [5]), the “Average (A560 nm)” value was 0.09, the “Average minus blank (A560 nm)” value was found to be 0.03 and the “Collagen (μg)” value is on record as 2.1* μg. The “Decrease in collagen release” value in the assay on Human dermal fibroblasts (peptide 50 μg/mL) was “✓”.

In the case of “GEKG (Synthetic Peptide H14) [H14 = tested at 50 μg/mL, H38 = same peptide tested at 0.3 μg/mL]”, in the assay with Human dermal fibroblasts, the “time for which collagen production was substantially maintained” value is “at least 48 hours”. For the same substance, the “collagen stimulation at the lower concentration (in words)” value with Human dermal fibroblasts (0.3 μg/mL versus 50 μg/mL) is on record as “not diminished”. In addition, the “collagen production compared to KTTKS” value in the assay on Human dermal fibroblasts (24 and 48 hours) was “stimulated more collagen production than the KTTKS”. For the same substance, the “Released collagen (μg/mL) 24 h” value came out at 29 µg/mL in the assay on Human dermal fibroblasts (setting [6]) and 30 µg/mL with Human dermal fibroblasts (peptide 50 μg/mL (per Table 5)). Besides, the “amount of collagen induced compared to LL37” value with Human dermal fibroblasts (24 hours) is “about the same amount of collagen as LL37”. Besides, the “Average (A560 nm)” value in the assay with Human dermal fibroblasts (setting [7]) came out at 0.13; in the assay on Human dermal fibroblasts (24 hours, peptide 50 μg/mL), 0.12; in the assay on Human dermal fibroblasts (setting [8]), 0.11; in the assay on Human dermal fibroblasts (48 hours, peptide 50 μg/mL), 0.15. Besides, the “Average minus blank (A560 nm)” value is listed as 0.05 in the assay on Human dermal fibroblasts (setting [7]); 0.04 in the assay on Human dermal fibroblasts (24 hours, peptide 50 μg/mL); 0.05 in the assay on Human dermal fibroblasts (setting [8]); 0.03 in the assay with Human dermal fibroblasts (48 hours, peptide 50 μg/mL). Further, the “Collagen” value in the assay on Human dermal fibroblasts (setting [7]) was found to be 2.9 µg; in the assay on Human dermal fibroblasts (setting [2]) it was 3.0 µg; with Human dermal fibroblasts (setting [8]), 2.8 µg; in the assay with Human dermal fibroblasts (setting [3]), 2.6 µg. Besides, the figures for the “Collagen produced (μg/mL) 24 hrs” value in the assay on Human dermal fibroblasts ([Peptide] 0.3 μg/mL) and in the assay on Human dermal fibroblasts ([Peptide] 50 μg/mL) were 29 µg/mL and 30 µg/mL, respectively. In addition, the “Released collagen (μg/mL) 48 h” value in the assay on Human dermal fibroblasts (setting [6]) stood at 28 µg/mL; in the assay on Human dermal fibroblasts (peptide 50 μg/mL (per Table 5)), 26 µg/mL. The “Collagen produced (μg/mL) 48 hrs” value came out at 28 µg/mL in the assay with Human dermal fibroblasts ([Peptide] 0.3 μg/mL) and 26 µg/mL in the assay on Human dermal fibroblasts ([Peptide] 50 μg/mL). Also, the “Significant release of collagen at 24 h and 48 h” value in the assay with Human dermal fibroblasts (peptide 0.3 μg/mL) and in the assay with Human dermal fibroblasts (peptide 50 μg/mL) was “✓” in each case. In addition, in the assay on Human dermal fibroblasts (collagen production), the maximal stimulating concentration was at most 0.3 µg/mL.

Turning to PGNP (PGNP-NH2) [H30], in the assay on Human dermal fibroblasts (peptide 50 μg/mL (per Table 5)), the “Released collagen (μg/mL) 24 h” value was 9 µg/mL and the “Released collagen (μg/mL) 48 h” value was found to be 20 µg/mL. In addition, in the assay on Human dermal fibroblasts (setting [4]), the “Average (A560 nm)” value was 0.10, the “Average minus blank (A560 nm)” value was determined as 0.02 and the “Collagen (μg)” value is 0.9* μg. In the assay on Human dermal fibroblasts ([Peptide] 50 μg/mL), the “Collagen produced (μg/mL) 24 hrs” value stood at 9 µg/mL and the “Collagen produced (μg/mL) 48 hrs” value was found to be 20 µg/mL. Also, in the assay with Human dermal fibroblasts (setting [5]), the “Average (A560 nm)” value worked out at 0.09, the “Average minus blank (A560 nm)” value is reported as 0.03 and the “Collagen (μg)” value is given as 2.0* μg. The “Increase in collagen release at 48 h v. 24 h” value with Human dermal fibroblasts (peptide 50 μg/mL) is reported as “✓”.

As to PQGP (PQGP-NH2) [H29], in the assay on Human dermal fibroblasts (peptide 50 μg/mL (per Table 5)), the “Released collagen (μg/mL) 24 h” value was determined as 4 µg/mL and the “Released collagen (μg/mL) 48 h” value is 19 µg/mL. Further, in the assay on Human dermal fibroblasts (setting [4]), the “Average (A560 nm)” value was 0.09, the “Average minus blank (A560 nm)” value amounted to 0.01 and the “Collagen (μg)” value was 0.4* μg. In the assay on Human dermal fibroblasts ([Peptide] 50 μg/mL), the “Collagen produced (μg/mL) 24 hrs” value came to 4 µg/mL and the “Collagen produced (μg/mL) 48 hrs” value worked out at 19 µg/mL. In the assay on Human dermal fibroblasts (setting [5]), the “Average (A560 nm)” value is given as 0.09, the “Average minus blank (A560 nm)” value worked out at 0.03 and the “Collagen (μg)” value is 1.9* μg. The “Increase in collagen release at 48 h v. 24 h” value in the assay on Human dermal fibroblasts (peptide 50 μg/mL) is given as “✓”.

On to PGPR (Synthetic Peptide H10), for which, in the assay with Human dermal fibroblasts (peptide 50 μg/mL (per Table 5)), the “Released collagen (μg/mL) 24 h” value was found to be 34 µg/mL and the “Released collagen (μg/mL) 48 h” value is 0 µg/mL. In the assay with Human dermal fibroblasts (24 hours, peptide 50 μg/mL), the “Average (A560 nm)” value amounted to 0.12 and the “Average minus blank (A560 nm)” value is given as 0.04. The “Collagen” value in the assay on Human dermal fibroblasts (setting [2]) is 3.4 µg. For the same substance, in the assay with Human dermal fibroblasts ([Peptide] 50 μg/mL), the “Collagen produced (μg/mL) 24 hrs” value was 34 µg/mL and the “Collagen produced (μg/mL) 48 hrs” value was 0 µg/mL. Also, in the assay with Human dermal fibroblasts (48 hours, peptide 50 μg/mL), the “Average (A560 nm)” value worked out at 0.11 and the “Average minus blank (A560 nm)” value was 0.00. Also, in the assay with Human dermal fibroblasts (setting [3]), the “Collagen (μg)” value is listed as 0.0* μg. Moreover, the “Decrease in collagen release” value with Human dermal fibroblasts (peptide 50 μg/mL) is “✓”.
